pKi: −log10 of the molar value. Calls of active or inactive are those of the source. No cut-off for these calls is given here.
How the values were obtained:
[1] = molecular target: Cannabinoid receptor 1 (Homo sapiens, UniProt P21554); experiment: Binding affinity to human CB1 receptor
[2] = system: Mus musculus; experiment: (§1) Analgesic activity in formalin-induced nociception CD-1 mouse model assessed as reduction in pain behaviour by measuring less licking of formalin injected hind paw at 3 mg/kg, ip pretreated with compound 20 mins prior to formalin induction measured during second phase (every 5 mins for 15 to 60 mins after formalin injection) by formalin test; assay type: functional, organism-based
[3] = system: Mus musculus; experiment: (§2) Analgesic activity in formalin-induced nociception CD-1 mouse model assessed as reduction in pain behaviour by measuring less favoring of formalin injected hind paw at 3 mg/kg, ip pretreated with compound 20 mins prior to formalin induction co-treated with AM251 and measured every 5 mins for 1 hr by formalin test; assay type: functional, organism-based
[4] = system: Mus musculus; experiment: as §1, with “favoring” for “licking”, “first” for “second”, “(0” for “(every 5 mins for 15”, “7” for “60”; assay type: functional, organism-based
[5] = system: Mus musculus; experiment: as §2, with “AM630” for “AM251”; assay type: functional, organism-based
[6] = system: Mus musculus; experiment: as §2, with “shaking” for “favoring”; assay type: functional, organism-based
[7] = system: Mus musculus; experiment: as §2, with “lifting” for “favoring”, “AM630” for “AM251”; assay type: functional, organism-based
[8] = system: Mus musculus; experiment: as §1, with “lifting” for “licking”, “first” for “second”, “(0” for “(every 5 mins for 15”, “7” for “60”; assay type: functional, organism-based
[9] = system: Mus musculus; experiment: In vivo Cannabi-mimetic activity in C57BL6/J mouse assessed as antinociceptive effect by measuring licking of hind paws at 20 mg/kg, ip measured for 85 mins by hot plate test (reference value: 10.15 +/- 0.70 sec); assay type: functional
[10] = system: Mus musculus; experiment: In vivo Cannabi-mimetic activity in C57BL6/J mouse assessed as alteration on the spontaneous activity at 10 mg/kg, ip measured for 15 mins by open field test (reference value: 3283 +/- 390.5 cm); assay type: functional
[11] = system: Mus musculus; experiment: as §1, with “flinching” for “licking”; assay type: functional, organism-based
[12] = system: Mus musculus; experiment: In vivo Cannabi-mimetic activity in C57BL6/J mouse assessed as catalepsy bar at 10 mg/kg, ip by bar test (reference value: 3.5 +/- 0.65 sec); assay type: functional
[13] = system: Mus musculus; experiment: as §1, with “flinching” for “licking”, “first” for “second”, “(0” for “(every 5 mins for 15”, “7” for “60”; assay type: functional, organism-based
[14] = system: Mus musculus; experiment: as §1, with “shaking” for “licking”, “first” for “second”, “(0” for “(every 5 mins for 15”, “7” for “60”; assay type: functional, organism-based
[15] = system: Mus musculus; experiment: as §1, with “favoring” for “licking”; assay type: functional, organism-based
[16] = system: Mus musculus; experiment: as §2, with “flinching” for “favoring”, “AM630” for “AM251”; assay type: functional, organism-based
[17] = system: Mus musculus; experiment: as §1, with “first” for “second”, “(0” for “(every 5 mins for 15”, “7” for “60”; assay type: functional, organism-based
[18] = system: Mus musculus; experiment: In vivo Cannabi-mimetic activity in C57BL6/J mouse assessed as alteration on the spontaneous activity at 20 mg/kg, ip measured for 15 mins by open field test (reference value: 3283 +/- 390.5 cm); assay type: functional
[19] = system: Mus musculus; experiment: as §1, with “shaking” for “licking”; assay type: functional, organism-based
[20] = system: Mus musculus; experiment: as §2, with “flinching” for “favoring”; assay type: functional, organism-based
[21] = system: Mus musculus; experiment: as §2, with “licking” for “favoring”; assay type: functional, organism-based
[22] = system: Mus musculus; experiment: In vivo Cannabi-mimetic activity in C57BL6/J mouse assessed as rectal temperature at 20 mg/kg, ip measured after 50 mins (reference value: 0.53 +/- 0.21 degreeC); assay type: functional
[23] = system: Mus musculus; experiment: In vivo Cannabi-mimetic activity in C57BL6/J mouse assessed as catalepsy bar at 20 mg/kg, ip by bar test (reference value: 3.5 +/- 0.65 sec); assay type: functional
[24] = system: Mus musculus; experiment: as §2, with “shaking” for “favoring”, “AM630” for “AM251”; assay type: functional, organism-based
[25] = system: Mus musculus; experiment: In vivo Cannabi-mimetic activity in C57BL6/J mouse assessed as antinociceptive effect by measuring licking of hind paws at 10 mg/kg, ip measured for 85 mins by hot plate test (reference value: 10.15 +/- 0.70 sec); assay type: functional
[26] = system: Mus musculus; experiment: as §1, with “lifting” for “licking”; assay type: functional, organism-based
[27] = system: Mus musculus; experiment: In vivo Cannabi-mimetic activity in C57BL6/J mouse assessed as rectal temperature at 10 mg/kg, ip measured after 50 mins (reference value: 0.53 +/- 0.21 degreeC); assay type: functional
[28] = system: Mus musculus; experiment: as §2, with “lifting” for “favoring”; assay type: functional, organism-based
[29] = system: Mus musculus; experiment: as §2, with “licking” for “favoring”, “AM630” for “AM251”; assay type: functional, organism-based

Chain of Cannabinoid receptor 1 (P21554 whole entry): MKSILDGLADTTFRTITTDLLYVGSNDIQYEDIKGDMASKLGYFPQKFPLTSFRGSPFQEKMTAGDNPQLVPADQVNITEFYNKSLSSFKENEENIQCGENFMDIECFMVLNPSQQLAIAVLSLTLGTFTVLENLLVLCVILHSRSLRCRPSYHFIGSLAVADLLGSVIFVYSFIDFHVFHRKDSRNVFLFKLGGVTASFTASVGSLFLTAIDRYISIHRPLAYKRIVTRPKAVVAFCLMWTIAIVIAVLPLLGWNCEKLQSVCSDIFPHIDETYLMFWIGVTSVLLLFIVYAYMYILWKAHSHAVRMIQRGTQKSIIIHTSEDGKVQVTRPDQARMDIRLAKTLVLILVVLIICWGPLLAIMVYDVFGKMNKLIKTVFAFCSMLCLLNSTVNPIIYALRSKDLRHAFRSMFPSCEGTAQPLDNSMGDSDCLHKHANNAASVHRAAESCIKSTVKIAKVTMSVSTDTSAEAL

## CCCc1cc(O)c2c(c1)OC(C)(C)[C@@H]1CCC(C)=C[C@@H]21 [TETRAHYDROCANNABIVARIN]
[1]
  pKi: 7.12

## CCCCc1cc(O)c2c(c1)OC(C)(C)[C@@H]1CCC(C)=C[C@@H]21
[2]
  Activity: Active
[3]
  Activity: inactive
[4]
  Activity: Active
[5]
  Activity: inactive
[6]
  Activity: inactive
[7]
  Activity: inactive
[8]
  Activity: Active
[9]
  Time: 17.5 s
[10]
  Activity: 3220 cm
[11]
  Activity: Active
[12]
  Time: 3 s
[13]
  Activity: Active
[14]
  Activity: Active
[15]
  Activity: Active
[16]
  Activity: inactive
[17]
  Activity: Active
[18]
  Activity: 3591 cm
[19]
  Activity: Active
[20]
  Activity: inactive
[21]
  Activity: inactive
[22]
  Activity: 0.4 °C
[23]
  Time: 13 s
[24]
  Activity: inactive
[25]
  Time: 7.94 s
[26]
  Activity: Active
[27]
  Activity: -0.28 °C
[28]
  Activity: inactive
[29]
  Activity: inactive
